Measurements: ChEMBL document CHEMBL1152014, “Synthesis of thiophenol derivatives as inhibitors of human collagenase” (Bioorg Med Chem Lett, 1995)

These compounds were tested against T1, Interstitial collagenase (Homo sapiens, UniProt P03956) (assay: Inhibitory activity was tested against human collagenase (MMP-1)).
T1 sequence (P03956 whole entry): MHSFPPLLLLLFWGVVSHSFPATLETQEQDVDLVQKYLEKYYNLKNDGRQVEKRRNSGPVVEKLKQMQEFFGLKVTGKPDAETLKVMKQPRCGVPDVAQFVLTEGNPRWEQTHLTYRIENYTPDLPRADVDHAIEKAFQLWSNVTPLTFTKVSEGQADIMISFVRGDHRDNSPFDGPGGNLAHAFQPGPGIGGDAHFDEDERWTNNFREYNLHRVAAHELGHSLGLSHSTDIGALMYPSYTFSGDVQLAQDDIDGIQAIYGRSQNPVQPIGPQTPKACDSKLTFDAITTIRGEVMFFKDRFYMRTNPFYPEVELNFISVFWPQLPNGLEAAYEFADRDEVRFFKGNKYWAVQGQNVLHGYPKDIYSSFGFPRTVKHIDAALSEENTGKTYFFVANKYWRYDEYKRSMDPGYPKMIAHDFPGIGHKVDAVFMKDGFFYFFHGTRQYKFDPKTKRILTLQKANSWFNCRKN

Row | Structure (SMILES) | IC50
1 | CNC(=O)[C@H](Cc1ccc(OC)cc1)NC(=O)[C@H](CC(C)C)[C@@H](S)c1ccccc1 | 0.27 µM
2 | CNC(=O)[C@H](Cc1ccc(OC)cc1)NC(=O)C(Cc1ccc[nH]c1=S)CC(C)C (stereo not given in full) | > 100 µM
3 | CNC(=O)[C@H](Cc1ccc(OC)cc1)NC(=O)C(Cc1cccc(Cl)c1S)CC(C)C (stereo not given in full) | 0.33 µM
4 | CNC(=O)[C@H](Cc1ccccc1)NC(=O)[C@@H](Cc1ccccc1S)CC(C)C | 1.1 µM
5 | CNC(=O)[C@H](Cc1ccc(OC)cc1)NC(=O)C(Cc1c(S)cccc1Cl)CC(C)C (stereo not given in full) | 0.32 µM
6 | CNC(=O)[C@H](Cc1ccc(OC)cc1)NC(=O)C(Cc1cccc(C(F)(F)F)c1S)CC(C)C (stereo not given in full) | 0.29 µM
7 | CNC(=O)[C@H](Cc1ccc(OC)cc1)NC(=O)[C@@H](Cc1ccccc1S)CC(C)C | 0.34 µM
8 | CC(C)CC(Cc1ccccc1S)C(=O)NC1CCCCCCCCCCNC1=O (stereo not given) | > 100 µM

The next compounds have a lower IC50 than those just listed; values first:

Row | IC50 | Structure (SMILES)
9 | 0.23 µM | CNC(=O)[C@H](Cc1ccc(OC)cc1)NC(=O)C(Cc1ccc(Cl)cc1S)CC(C)C (stereo not given in full)
10 | 0.22 µM | CNC(=O)[C@H](Cc1ccc(OC)cc1)NC(=O)[C@@H](Cc1cccc(OC)c1S)CC(C)C
11 | 0.16 µM | CNC(=O)[C@H](Cc1ccc(OC)cc1)NC(=O)[C@H](Cc1cccc(OC)c1S)CC(C)C
12 | 0.14 µM | CNC(=O)[C@H](Cc1ccc(OC)cc1)NC(=O)C(Cc1ccc(OC)cc1S)CC(C)C (stereo not given in full)
13 | 0.055 µM | CNC(=O)[C@H](Cc1ccc(OC)cc1)NC(=O)[C@H](Cc1ccccc1S)CC(C)C
14 | 0.03 µM | CNC(=O)[C@H](Cc1ccccc1)NC(=O)[C@H](Cc1ccccc1S)CC(C)C
15 | 0.017 µM | CNC(=O)[C@H](Cc1ccc(OC)cc1)NC(=O)[C@H](CC(C)C)[C@H](C)S
